Results reported in article PMC5902495, “Synthesis of Symmetrical Tetrameric Conjugates of the Radiolanthanide Chelator DOTPI for Application in Endoradiotherapy by Means of Click Chemistry” (Frontiers in Chemistry, 2018).

Test: Stability and protonation constants of Cu^II complexes (spectrophotometry, pH-potentiometry)
Format: physicochemical
Conditions: 25°C, 0.15 M NaCl
Experimental: Stability constant of Cu(DOTPI) complex was determined by spectrophotometry, studying the Cu^II-DOTPI systems at the absorption band of Cu^II-complex at [H^+] = 0.01– 0.2 M over the wavelength range of 400–800 nm. Concentrations of Cu^II and DOTPI were 1 mM. The H^+ concentration in the samples was adjusted by addition of calculated amounts of 2.0 M HCl, while ionic strength was not constant in these samples. Samples were kept at 25°C for a week. Absorbance values were determined at 9 wavelengths (550, 575, 600, 625, 650, 675, 700, 725, and 750 nm). For calculation of stability and protonation constants of Cu(DOTPI), molar absorptivities of CuCl2, and Cu(HxL) species (wherein x = 0, 1, 2 …5) were determined by recording the spectra of 1.0 × 10^−3, 2.0 × 10^−3 and 3.0 × 10^−3 M solutions of CuCl2 and Cu(DOTPI) in the pH range of 1.7–11.7. The protonation constants of the complexes Cu(DOTPI) and the stability and protonation constants of the dinuclear Cu2(DOTPI) complexes were determined by pH-potentiometric titrations, made at 1:1 and 2:1 metal to ligand concentration ratios.
The stability constant of the Cu(DOTPI(Chx)4) complex has been determined by spectrophotometry with the use of competition reactions between DOTPI(Chx)4 and EDTA for the Cu^2+ at pH = 5.0. The concentration of Cu(EDTA) was 0.2 mM, while that of the DOTPI(Chx)4 was varied between 0.1 and 1.0 mM (5 samples). The samples were kept at 25°C for 2 weeks. The absorbance values and the molar absorptivities of CuCl2, Cu(DOTPI(Chx)4), and Cu(EDTA) have been determined at 11 wavelength (300, 304, 308, 312, 316, 320, 324, 328, 332, 336, and 340 nm) values between 300 and 340 nm. The molar absorptivities of CuCl2, Cu(DOTPI(Chx)4), and Cu(EDTA) were deteremined in 0.05, 0.1, 0.2, 0.3, and 0.4 mM solutions. The absorbance and pH values were determined in the samples after the equilibrium was reached (the time needed to reach the equilibria was determined by spectrophotometry). The spectrophotometric measurements were made with the use of 1.0 cm cells with a Cary 1E spectrophotometer at 25°C. The protonation constants of Cu(DOTPI(Chx)4) complex were determined by pH-potentiometric titrations at 1:1 metal to ligand molar ratio.
For pH measurements and titrations, a Metrohm 785 DMP Titrino titration workstation and a Metrohm-6.0233.100 combined electrode were used. Equilibrium measurements were carried out at a constant ionic strength (0.15 M NaCl) in 6 mL samples at 25°C. The solutions were stirred, and constantly purged with N2. The titrations were performed in a pH range of 1.7–11.7. KH-phthalate (pH = 4.005) and borax (pH = 9.177) buffers were used to calibrate the pH meter. For calculation of [H^+] from measured pH values, the method proposed by Irving et al. was used (Irving et al., [1967]). A 0.01 M HCl solution was titrated with the standardized NaOH solution in the presence of 0.1 M NaCl. Differences between the measured (pHread) and calculated pH (–log[H^+]) values were used to obtain the equilibrium H^+ concentration from the pH values, measured in the titration experiments. For the equilibrium calculations, the stoichiometric water ionic product (pKw) is also needed to calculate [H^+] values in basic conditions. […] For the calculation of the equilibrium constants the program PSEQUAD (Zekany and Nagypal, [1985]) was used.
2. Protonation and complexation equilibria of DOTPI and
The protonation processes of the DOTPI and DOTPI(Chx)4, ligands have been studied by pH-potentiometry. The protonation constants (logKiH) of ligands are defined according to Eq. (1).
The stability and protonation constants of DOTPI and DOTPI(Chx)4 complexes with several metal ions were determined by pH-potentiometric and UV/Vis spectrophotometric, methods.
The stability and protonation constants of the metal complexes formed with the DOTPI and […]

- protonation constant Cu2LH: 5.04 (3)
- protonation constant Cu2LH2: 4.71 (5)
- protonation constant CuH2L: 5.07 (1)
- protonation constant CuH3L: 4.49 (2)
- protonation constant CuH4L: 4.20 (2)
- protonation constant CuH5L: 2.35 (3)
- protonation constant CuHL: 5.68 (2)
- stability constant of dinuclear complex Cu2L: 4.49 (6)
SMILES: O=C(O)CCP(=O)(O)CN1CCN(CP(=O)(O)CCC(=O)O)CCN(CP(=O)(O)CCC(=O)O)CCN(CP(=O)(O)CCC(=O)O)CC1 [DOTPI, 1,4,7,10-tetraazacyclododecane-1,4,7,10-tetrakis[methylene(2-carboxyethylphosphinic acid)]]
